# Read-outs that look alike come from different tables or passages of the source.
# Tests used:
# [1] = tested on: S6 Ribosomal Protein phosphorylation Ser235/236 in TSC1 null mouse embryo fibroblast (MEF) cells; experiment: Reverse protein array, S6 Ribosomal Protein phosphorylation in TSC1 null MEF cells; format: cell-based; details: 1 h, TSC1-/- MEFs, 60 minutes
# Outline: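 Phospho-S6 (Ser235/236) was quantified by reverse protein array of cell lysates with a phospho-specific primary antibody. […]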
# [2] = biological target: T1, PI3K alfa (Homo sapiens, UniProt P42336); experiment: PI3K alpha kinase assay (Kinase-Glo luminescence); format: biochemical
# T1 construct: His tag (C); made in house; host or cells: baculovirus BV1075; Tn5 (Trichoplusia ni) or TiniPro insect cells
# Outline: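 Kinase-Glo luminescence read of ATP remaining after PI3Kα (10 nM) phosphorylates 10 μg/mL bovine liver phosphatidylinositol with 1 μM ATP, pH 7.5 TRIS, 3 mM MgCl2, 0.05% CHAPS; 60 min at room temperature. IC50 from 4-parameter logistic fit over 8 concentrations.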
# T1 sequence (P42336 with tags, fused parts or gaps limits assumed): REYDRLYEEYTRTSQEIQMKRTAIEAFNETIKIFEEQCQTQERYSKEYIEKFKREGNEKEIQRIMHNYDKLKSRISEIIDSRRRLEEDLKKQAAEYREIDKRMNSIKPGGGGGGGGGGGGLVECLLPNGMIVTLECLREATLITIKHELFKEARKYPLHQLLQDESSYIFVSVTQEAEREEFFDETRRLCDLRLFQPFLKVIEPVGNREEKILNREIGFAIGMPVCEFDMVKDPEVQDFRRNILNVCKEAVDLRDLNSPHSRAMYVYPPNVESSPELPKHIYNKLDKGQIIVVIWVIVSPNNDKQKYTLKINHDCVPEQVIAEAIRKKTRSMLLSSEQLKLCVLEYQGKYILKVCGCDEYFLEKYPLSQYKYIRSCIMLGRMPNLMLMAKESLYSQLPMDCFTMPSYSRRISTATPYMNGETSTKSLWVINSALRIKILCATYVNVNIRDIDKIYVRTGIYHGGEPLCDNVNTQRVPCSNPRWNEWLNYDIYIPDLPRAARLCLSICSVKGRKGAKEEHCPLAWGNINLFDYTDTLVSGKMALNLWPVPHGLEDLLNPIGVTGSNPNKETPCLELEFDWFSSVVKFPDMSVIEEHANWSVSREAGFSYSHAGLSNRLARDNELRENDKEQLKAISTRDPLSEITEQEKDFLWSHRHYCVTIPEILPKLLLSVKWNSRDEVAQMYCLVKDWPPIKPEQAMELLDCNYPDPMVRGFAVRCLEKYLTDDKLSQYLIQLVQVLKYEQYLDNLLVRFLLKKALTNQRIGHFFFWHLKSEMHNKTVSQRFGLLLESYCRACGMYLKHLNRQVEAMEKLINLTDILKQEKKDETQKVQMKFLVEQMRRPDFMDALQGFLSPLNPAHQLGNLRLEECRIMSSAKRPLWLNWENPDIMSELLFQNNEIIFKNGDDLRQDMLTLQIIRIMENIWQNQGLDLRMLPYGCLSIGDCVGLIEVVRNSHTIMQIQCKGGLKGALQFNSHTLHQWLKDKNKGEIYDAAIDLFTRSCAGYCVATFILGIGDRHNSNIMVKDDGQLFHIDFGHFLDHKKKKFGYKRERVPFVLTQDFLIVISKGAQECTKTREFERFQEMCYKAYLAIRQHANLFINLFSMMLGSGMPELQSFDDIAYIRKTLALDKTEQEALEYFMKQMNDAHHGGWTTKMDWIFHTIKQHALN
IC50 ([2]; read-out: EPK_PI3Kalfa/IC50),IC50 ([2]; read-out: PI3Kalfa/IC50),SMILES,IC50 ([1]; read-out: p-S6 IC50),IC50 ([1]; read-out: p-S6)
162 nM,,"CCOc1ccc(-c2ccc3ncc4c(c3c2)n(-c2ccc(NC(=O)COC)nc2C)c(=O)n4C)cn1 [Example 20.2, N-{5-[8-(6-Ethoxy-pyridin-3-yl)-3-methyl-2-oxo-2,3-dihydro-imidazo[4,5-c]quinolin-1-yl]-6-methyl-pyridin-2-yl}-2-methoxy-acetamide]",131 nM,
65 nM,,"Cc1nc(N(C)C)ccc1-n1c(=O)n(C)c2cnc3ccc(-c4cncc(N)c4)cc3c21 [Example 19.5, 8-(5-Amino-pyridin-3-yl)-1-(6-dimethylamino-2-methyl-pyridin-3-yl)-3-methyl-1,3-dihydro-imidazo[4,5-c]quinolin-2-one]",,
43 nM,,"CCOc1ccc(-c2ccc3ncc4c(c3c2)n(-c2ccc(C)nc2C)c(=O)n4C)cn1 [Example 14.2, 1-(2,6-Dimethyl-pyridin-3-yl)-8-(6-ethoxy-pyridin-3-yl)-3-methyl-1,3-dihydro-imidazo[4,5-c]quinolin-2-one]",16 nM,
,71 nM,"COc1ncccc1-n1c(=O)n(C)c2cnc3ccc(-c4cnc(N(C)C)nc4)cc3c21 [Example 1.9, 8-(2-Dimethylamino-pyrimidin-5-yl)-1-(2-methoxy-pyridin-3-yl)-3-methyl-1,3-dihydro-imidazo[4,5-c]quinolin-2-one]",,32.8 nM
39 nM,,"CNc1ncc(-c2ccc3ncc4c(c3c2)n(-c2ccc(N(C)CCOC)nc2C)c(=O)n4C)cn1 [Example 15.2, 1-{6-[(2-Methoxy-ethyl)-methyl-amino]-2-methyl-pyridin-3-yl}-3-methyl-8-(2-methylamino-pyrimidin-5-yl)-1,3-dihydro-imidazo[4,5-c]quinolin-2-one]",7 nM,
16 nM,,"Cc1ccc(-n2c(=O)n(C)c3cnc4ccc(-c5cnc6c(ccn6C)c5)cc4c32)c(C)n1 [Example 14.7, 1-(2,6-Dimethyl-pyridin-3-yl)-3-methyl-8-(1-methyl-1H-pyrrolo[2,3-b]pyridin-5-yl)-1,3-dihydro-imidazo[4,5-c]quinolin-2-one]",3 nM,
123 nM,,"CNc1ncc(-c2ccc3ncc4c(c3c2)n(-c2ccc(NC(=O)COC)nc2C)c(=O)n4C)cn1 [Example 20.3, 2-Methoxy-N-{6-methyl-5-[3-methyl-8-(2-methylamino-pyrimidin-5-yl)-2-oxo-2,3-dihydro-imidazo[4,5-c]quinolin-1-yl]-pyridin-2-yl}-acetamide]",44 nM,
15 nM,,"CCNc1cc(-c2ccc3ncc4c(c3c2)n(-c2ccc(N(C)CC)nc2C)c(=O)n4C)cnc1C [Example 12.2, 8-(5-Ethylamino-6-methyl-pyridin-3-yl)-1-[6-(ethyl-methyl-amino)-2-methyl-pyridin-3-yl]-3-methyl-1,3-dihydro-imidazo[4,5-c]quinolin-2-one]",3 nM,
164 nM,,"COCCOc1ccc(-n2c(=O)n(C)c3cnc4ccc(-c5cnc(COC)c(OC)c5)cc4c32)c(C)n1 [Example 22.3, 1-[6-(2-Methoxy-ethoxy)-2-methyl-pyridin-3-yl]-8-(5-methoxy-6-methoxymethyl-pyridin-3-yl)-3-methyl-1,3-dihydro-imidazo[4,5-c]quinolin-2-one]",15 nM,
,26 nM,"CNc1ncc(-c2ccc3ncc4c(c3c2)n(-c2cccnc2C)c(=O)n4C)cn1 [Example 2.2, 3-Methyl-8-(2-methylamino-pyrimidin-5-yl)-1-(2-methyl-pyridin-3-yl)-1,3-dihydro-imidazo[4,5-c]quinolin-2-one]",,5.33 nM
33 nM,,"CCNc1cc(-c2ccc3ncc4c(c3c2)n(-c2cnc(F)cc2C)c(=O)n4C)cnc1C [Example 16.2, 8-(5-Ethylamino-6-methyl-pyridin-3-yl)-1-(6-fluoro-4-methyl-pyridin-3-yl)-3-methyl-1,3-dihydro-imidazo[4,5-c]quinolin-2-one]",6 nM,
,90 nM,"COc1ccc(-c2ccc3ncc4c(c3c2)n(-c2ncccc2C)c(=O)n4C)cn1 [Example 3.13, 8-(6-Methoxy-pyridin-3-yl)-3-methyl-1-(3-methyl-pyridin-2-yl)-1,3-dihydro-imidazo[4,5-c]quinolin-2-one]",,
,11 nM,"COc1ccc(-n2c(=O)n(C)c3cnc4ccc(-c5cnc(N)c(C(F)(F)F)c5)cc4c32)c(OC)n1 [Example 8.1, 8-(6-Amino-5-trifluoromethyl-pyridin-3-yl)-1-(2,6-dimethoxy-pyridin-3-yl)-3-methyl-1,3-dihydro-imidazo[4,5-c]quinolin-2-one]",,1.07 nM
27 nM,,"Cc1cc(F)ncc1-n1c(=O)n(C)c2cnc3ccc(-c4cnc5c(ccn5C)c4)cc3c21 [Example 16.5, 1-(6-Fluoro-4-methyl-pyridin-3-yl)-3-methyl-8-(1-methyl-1H-pyrrolo[2,3-b]pyridin-5-yl)-1,3-dihydro-imidazo[4,5-c]quinolin-2-one]",12.6 nM,
11 nM,,"CNc1ncc(-c2ccc3ncc4c(c3c2)n(-c2ccc(F)nc2C)c(=O)n4C)cc1C(F)(F)F [Example 7.13, 1-(6-Fluoro-2-methyl-pyridin-3-yl)-3-methyl-8-(6-methylamino-5-trifluoromethyl-pyridin-3-yl)-1,3-dihydro-imidazo[4,5-c]quinolin-2-one]",,
11 nM,,"CNC(=O)c1cc(-c2ccc3ncc4c(c3c2)n(-c2ccc(F)nc2C)c(=O)n4C)cnc1N [Example 7.14, 2-Amino-5-[1-(6-fluoro-2-methyl-pyridin-3-yl)-3-methyl-2-oxo-2,3-dihydro-1H-imidazo[4,5-c]quinolin-8-yl]-N-methyl-nicotinamide]",,
,58 nM,"COc1ncccc1-n1c(=O)n(C)c2cnc3ccc(-c4ccc(F)nc4)cc3c21 [Example 1.8, 8-(6-Fluoro-pyridin-3-yl)-1-(2-methoxy-pyridin-3-yl)-3-methyl-1,3-dihydro-imidazo[4,5-c]quinolin-2-one]",,
23 nM,,"COCCN(C)c1ccc(-n2c(=O)n(C)c3cnc4ccc(-c5cnc(CO)c(OC)c5)cc4c32)c(C)n1 [Example 15.9, 8-(6-Hydroxymethyl-5-methoxy-pyridin-3-yl)-1-{6-[(2-methoxy-ethyl)-methyl-amino]-2-methyl-pyridin-3-yl}-3-methyl-1,3-dihydro-imidazo[4,5-c]quinolin-2-one]",,
19 nM,,"CCNc1cc(-c2ccc3ncc4c(c3c2)n(-c2ccc(C)nc2C)c(=O)n4C)cnc1C [Example 14.6, 1-(2,6-Dimethyl-pyridin-3-yl)-8-(5-ethylamino-6-methyl-pyridin-3-yl)-3-methyl-1,3-dihydro-imidazo[4,5-c]quinolin-2-one]",2 nM,
,70 nM,"Cc1cccnc1-n1c(=O)n(C)c2cnc3ccc(-c4cnc5ccccc5c4)cc3c21 [Example 3.8, 3-Methyl-1-(3-methyl-pyridin-2-yl)-8-quinolin-3-yl-1,3-dihydro-imidazo[4,5-c]quinolin-2-one]",,
,29 nM,"COc1ccc(-c2ccc3ncc4c(c3c2)n(-c2cccnc2)c(=O)n4C)cc1OC [Example 5.2, 8-(3,4-Dimethoxy-phenyl)-3-methyl-1-pyridin-3-yl-1,3-dihydro-imidazo[4,5-c]quinolin-2-one]",,
11 nM,,"CNc1ncc(-c2ccc3ncc4c(c3c2)n(-c2ccc(N(C)C)nc2C)c(=O)n4C)cn1 [Example 19.1, 1-(6-Dimethylamino-2-methyl-pyridin-3-yl)-3-methyl-8-(2-methylamino-pyrimidin-5-yl)-1,3-dihydro-imidazo[4,5-c]quinolin-2-one]",,
,19 nM,"COc1ccc(-c2ccc3ncc4c(c3c2)n(-c2cccnc2)c(=O)n4C)cn1 [Example 5.4, 8-(6-Methoxy-pyridin-3-yl)-3-methyl-1-pyridin-3-yl-1,3-dihydro-imidazo[4,5-c]quinolin-2-one]",,
16 nM,,"COc1ccc(-n2c(=O)n(C)c3cnc4ccc(-c5cnc(CO)c(OC)c5)cc4c32)c(C)n1 [Example 11.8, 8-(6-Hydroxymethyl-5-methoxy-pyridin-3-yl)-1-(6-methoxy-2-methyl-pyridin-3-yl)-3-methyl-1,3-dihydro-imidazo[4,5-c]quinolin-2-one]",,
44 nM,,"CNc1ncc(-c2ccc3ncc4c(c3c2)n(-c2ccc(F)nc2C)c(=O)n4C)cc1F [Example 7.12, 8-(5-Fluoro-6-methylamino-pyridin-3-yl)-1-(6-fluoro-2-methyl-pyridin-3-yl)-3-methyl-1,3-dihydro-imidazo[4,5-c]quinolin-2-one]",,
40 nM,,"COCC(=O)Nc1ccc(-n2c(=O)n(C)c3cnc4ccc(-c5cncc(OC(C)C)c5)cc4c32)c(C)n1 [Example 20.5, N-{5-[8-(5-Isopropoxy-pyridin-3-yl)-3-methyl-2-oxo-2,3-dihydro-imidazo[4,5-c]quinolin-1-yl]-6-methyl-pyridin-2-yl}-2-methoxy-acetamide]",,
51 nM,,"Cc1nc(C(C)(C)O)ccc1-n1c(=O)n(C)c2cnc3ccc(-c4cncc(OC(C)C)c4)cc3c21 [Example 31.9, 1-[6-(1-Hydroxy-1-methyl-ethyl)-2-methyl-pyridin-3-yl]-8-(5-isopropoxy-pyridin-3-yl)-3-methyl-1,3-dihydro-imidazo[4,5-c]quinolin-2-one]",,
9 nM,,"COc1cc(-c2ccc3ncc4c(c3c2)n(-c2ccc(N(C)C)nc2C)c(=O)n4C)cnc1CO [Example 19.4, 1-(6-Dimethylamino-2-methyl-pyridin-3-yl)-8-(6-hydroxymethyl-5-methoxy-pyridin-3-yl)-3-methyl-1,3-dihydro-imidazo[4,5-c]quinolin-2-one]",,
